Columns and labels:
Assay in all cases: two-electrode voltage clamp, Xenopus oocytes
[1] = tested on: T1, OR1; type: cell-based, Cimex lectularius; conditions: co-expressed with ORCO; pH 7.6 Ringer's solution; −80 mV; agonist current
T1 construct: full-length cDNA from adult antennae in pT7Ts; co-expressed with ORCO in Xenopus oocytes; OR numbering of the bed bug genome annotation (47 ORs), not the earlier group naming in which OR5 was called OR1; with Odorant receptor coreceptor

[2] = tested on: T2, OR36; type: cell-based, Cimex lectularius; conditions: co-expressed with ORCO, pH 7.6 Ringer's solution, −80 mV, agonist current
T2 construct: full-length cDNA from adult antennae in pT7Ts; co-expressed with ORCO in Xenopus oocytes; with Odorant receptor coreceptor

[3] = tested on: T3, OR20; type: cell-based, Cimex lectularius; conditions: co-expressed with ORCO; pH 7.6 Ringer's solution; −80 mV; agonist current
T3 construct: full-length cDNA from adult antennae in pT7Ts; co-expressed with ORCO in Xenopus oocytes; with Odorant receptor coreceptor

[4] = tested on: T4, OR42; type: cell-based, Cimex lectularius; conditions: co-expressed with ORCO; pH 7.6 Ringer's solution; −80 mV; agonist current
T4 construct: full-length cDNA from adult antennae in pT7Ts; co-expressed with ORCO in Xenopus oocytes; with Odorant receptor coreceptor

[5] = tested on: T5, OR5; type: cell-based, Cimex lectularius; conditions: co-expressed with ORCO; pH 7.6 Ringer's solution; −80 mV; agonist current
T5 construct: full-length cDNA from adult antennae in pT7Ts; co-expressed with ORCO in Xenopus oocytes; called OR1 in the group's previous work; with Odorant receptor coreceptor

[6] = tested on: T6, OR21; type: cell-based, Cimex lectularius; conditions: co-expressed with ORCO; pH 7.6 Ringer's solution; −80 mV; agonist current
T6 construct: full-length cDNA from adult antennae in pT7Ts; co-expressed with ORCO in Xenopus oocytes; with Odorant receptor coreceptor

[7] = tested on: T7, OR15; type: cell-based, Cimex lectularius; conditions: co-expressed with ORCO; pH 7.6 Ringer's solution; −80 mV; agonist current
T7 construct: full-length cDNA from adult antennae in pT7Ts; co-expressed with ORCO in Xenopus oocytes; with Odorant receptor coreceptor

[8] = tested on: T8, OR12; type: cell-based, Cimex lectularius; conditions: co-expressed with ORCO; pH 7.6 Ringer's solution; −80 mV; agonist current
T8 construct: full-length cDNA from adult antennae in pT7Ts; co-expressed with ORCO in Xenopus oocytes; with Odorant receptor coreceptor

[9] = tested on: T9, OR19; type: cell-based, Cimex lectularius; conditions: co-expressed with ORCO; pH 7.6 Ringer's solution; −80 mV; agonist current
T9 construct: full-length cDNA from adult antennae in pT7Ts; co-expressed with ORCO in Xenopus oocytes; with Odorant receptor coreceptor

[10] = molecular target: T10, OR37 (Cimex lectularius, UniProt A0A8I6S1W4); type: cell-based; conditions: co-expressed with ORCO; pH 7.6 Ringer's solution; −80 mV; agonist current
T10 construct: gene 106669445; full-length cDNA from adult antennae in pT7Ts; co-expressed with ORCO in Xenopus oocytes; with Odorant receptor coreceptor

[11] = tested on: T11, OR47; type: cell-based, Cimex lectularius; conditions: co-expressed with ORCO; pH 7.6 Ringer's solution; −80 mV; agonist current
T11 construct: full-length cDNA from adult antennae in pT7Ts; co-expressed with ORCO in Xenopus oocytes; with Odorant receptor coreceptor

[12] = tested on: T12, OR46; type: cell-based, Cimex lectularius; conditions: co-expressed with ORCO; pH 7.6 Ringer's solution; −80 mV; agonist current
T12 construct: full-length cDNA from adult antennae in pT7Ts; co-expressed with ORCO in Xenopus oocytes; with Odorant receptor coreceptor

T10 sequence (A0A8I6S1W4 1-374): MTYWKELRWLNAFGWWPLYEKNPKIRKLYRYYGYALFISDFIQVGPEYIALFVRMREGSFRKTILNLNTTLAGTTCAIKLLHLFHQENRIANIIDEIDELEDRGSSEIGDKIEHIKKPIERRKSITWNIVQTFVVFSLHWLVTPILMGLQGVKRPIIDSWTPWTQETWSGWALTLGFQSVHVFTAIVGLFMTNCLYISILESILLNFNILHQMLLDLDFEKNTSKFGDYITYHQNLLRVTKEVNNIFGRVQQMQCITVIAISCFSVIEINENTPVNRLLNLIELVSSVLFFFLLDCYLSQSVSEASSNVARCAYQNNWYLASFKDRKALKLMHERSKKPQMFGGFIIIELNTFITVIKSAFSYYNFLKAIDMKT
T10 sequence (A0A0A0U7J0 1-451 partner): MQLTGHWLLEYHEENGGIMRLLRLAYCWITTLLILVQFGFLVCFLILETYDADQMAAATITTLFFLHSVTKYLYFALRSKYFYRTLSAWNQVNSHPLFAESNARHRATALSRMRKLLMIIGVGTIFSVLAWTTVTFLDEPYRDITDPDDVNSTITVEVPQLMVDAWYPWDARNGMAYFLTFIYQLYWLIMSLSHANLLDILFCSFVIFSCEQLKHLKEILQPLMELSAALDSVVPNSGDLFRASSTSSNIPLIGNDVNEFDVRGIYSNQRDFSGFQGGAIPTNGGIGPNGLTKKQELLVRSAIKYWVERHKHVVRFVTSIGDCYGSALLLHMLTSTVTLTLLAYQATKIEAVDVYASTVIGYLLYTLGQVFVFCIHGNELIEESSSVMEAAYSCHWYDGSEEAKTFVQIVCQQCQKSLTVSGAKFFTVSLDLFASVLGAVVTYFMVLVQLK

**Q.** How did the EC50 [1] turn out when CC12CCC(CC1)C(C)(C)O2 [eucalyptol] was run?
**A.** 1.88 × 10^−5 v/v dilution

**Q.** How did the EC50 [2] turn out when CC(C)[C@@H]1CC[C@@H](C)CC1=O [(−)-menthone] was run?
**A.** 1.64 × 10^−7 v/v dilution

**Q.** With C=CC(O)CCCCC (centres unmarked) [1-octen-3-ol] as the molecule, how does the EC50 [3] read?
**A.** 6.95 × 10^−6 v/v dilution

**Q.** CC1=CC[C@@H]2C[C@H]1C2(C)C [(+)-α-pinene] was tested. Which EC50 [4] did it give?
**A.** 1.32 × 10^−5 v/v dilution

**Q.** Which results are given for CCCCCCCCCC=O [decanal]?
**A.** EC50 [5]: 1.53 × 10^−6 v/v dilution; EC50 [6]: 4.27 × 10^−6 v/v dilution

**Q.** Which EC50 [5] does the source give for CCCCCCCCC=O [nonanal] here?
**A.** 1.32 × 10^−7 v/v dilution

**Q.** For CC1=CC[C@@H]2[C@H](C1)C2(C)C [1s-(+)-3-carene], which EC50 [3] is on record?
**A.** 6.85 × 10^−6 v/v dilution

**Q.** For CC12CCC(CC1=O)C2(C)C (centres unmarked) [camphor], which EC50 [1] is on record?
**A.** 1.94 × 10^−5 v/v dilution

**Q.** C=C1CC/C=C(\C)CC[C@@H]2[C@@H]1CC2(C)C [β-caryophyllene] was tested. Which EC50 [7] did it give?
**A.** 6.46 × 10^−6 v/v dilution

**Q.** With CCCCC/C=C/CO [trans-2-octen-1-ol] as the molecule, how does the EC50 [8] read?
**A.** 1.03 × 10^−4 v/v dilution

**Q.** With CCCCC(C)=O [2-hexanone] as the molecule, how does the EC50 [9] read?
**A.** 1.33 × 10^−6 v/v dilution

**Q.** How did the EC50 [10] turn out when CC(C)=CCCC(C)=CC=O [citral] was run?
**A.** 3.32 × 10^−8 v/v dilution

**Q.** O=c1ccc2ccccc2o1 [coumarin] was tested. Which EC50 [4] did it give?
**A.** 1.45 × 10^−5 v/v dilution

**Q.** What about the EC50 [11] of the same molecule?
**A.** 2 × 10^−5 v/v dilution

**Q.** CC(C)[C@H]1CC[C@H](C)CC1=O [(+)-menthone] was tested. Which EC50 [10] did it give?
**A.** 1.93 × 10^−7 v/v dilution

**Q.** And the EC50 ([2]; b26 prints 9.67 × 10^−8 for the same pair)?
**A.** 9.92 × 10^−8 v/v dilution

**Q.** What about the EC50 [12] of the same molecule?
**A.** 3.46 × 10^−5 v/v dilution

**Q.** For CCCCCCCCC(C)O (centres unmarked) [2-decanol], which EC50 [6] is on record?
**A.** 7.55 × 10^−6 v/v dilution

**Q.** For CCCC(C)=O [2-pentanone], which EC50 [9] is on record?
**A.** 4.13 × 10^−6 v/v dilution

— paper PMC5382537, “Molecular Basis of Olfactory Chemoreception in the Common Bed Bug, Cimex lectularius” (Scientific Reports, 2017)
